Data taken from EPA's CvTdb concentration-time database.

Legend:
[1] = system: Rat; assay: concentration in plasma after dosing; conditions: dosed: 2-Hydroxy-4-methoxybenzophenone, 8 mg/kg, iv, Female, F344
[2] = system: Mouse; assay: concentration in plasma after dosing; conditions: 2 h; dosed: 2-Hydroxy-4-methoxybenzophenone; 500 mg/kg; oral; Female; B6C3F1
[3] = system: Mouse; assay: concentration in plasma after dosing; conditions: 3 h; dosed: 2-Hydroxy-4-methoxybenzophenone; 250 mg/kg; oral; Male; B6C3F1
[4] = system: Mouse; assay: concentration in plasma after dosing; conditions: 0.25 h; dosed: 2-Hydroxy-4-methoxybenzophenone; 250 mg/kg; oral; Male; B6C3F1
[5] = system: Mouse; assay: concentration in plasma after dosing; conditions: 0.25 h; dosed: 2-Hydroxy-4-methoxybenzophenone; 50 mg/kg; iv; Male; B6C3F1
[6] = system: Mouse; assay: concentration in plasma after dosing; conditions: 2 h; dosed: 2-Hydroxy-4-methoxybenzophenone; 500 mg/kg; oral; Female; B6C3F1; remark: listed apart in the source
[7] = system: Rat; assay: concentration in plasma after dosing; conditions: dosed: 2-Hydroxy-4-methoxybenzophenone, 250 mg/kg, oral, Male, F344
[8] = system: Rat; assay: concentration in plasma after dosing; conditions: dosed: Nitrite, 20 mg/kg, iv, Male, F344
[9] = system: Rat; assay: concentration in plasma after dosing; conditions: dosed: Nitrite, 20 mg/kg, iv, Male, F344; remark: listed apart in the source
[10] = system: Rat; assay: concentration in plasma after dosing; conditions: dosed: Nitrite, 20 mg/kg, iv, Male, F344; remark: listed apart in the source
[11] = system: Rat; assay: concentration in plasma after dosing; conditions: dosed: Nitrite, 80 mg/kg, oral, Female, F344
[12] = system: Rat; assay: concentration in brain after dosing; conditions: 12 h; dosed: Perfluorooctanoic acid; 80 mg/kg; oral; Female; Harlan Sprague Dawley
[13] = system: Rat; assay: concentration in liver after dosing; conditions: 3 h; dosed: Perfluorooctanoic acid; 80 mg/kg; oral; Female; Harlan Sprague Dawley
[14] = system: Rat; assay: concentration in liver after dosing; conditions: 0.5 h; dosed: Fluorotelomer alcohol 8+2; 24 mg/kg; oral; Male; Harlan Sprague Dawley
[15] = system: Rat; assay: concentration in liver after dosing; conditions: 1 h; dosed: Fluorotelomer alcohol 8+2; 24 mg/kg; oral; Male; Harlan Sprague Dawley
[16] = system: Rat; assay: concentration in kidney after dosing; conditions: 12 h; dosed: Fluorotelomer alcohol 8+2; 80 mg/kg; oral; Female; Harlan Sprague Dawley
[17] = system: Rat; assay: concentration in liver after dosing; conditions: 3 h; dosed: Fluorotelomer alcohol 8+2; 24 mg/kg; oral; Male; Harlan Sprague Dawley
[18] = system: Rat; assay: concentration in plasma after dosing; conditions: dosed: 678-39-7, 40 mg/kg, iv, Male, F344
[19] = system: Rat; assay: concentration in liver after dosing; conditions: 1 h; dosed: Fluorotelomer alcohol 8+2; 24 mg/kg; oral; Male; Harlan Sprague Dawley; remark: listed apart in the source
[20] = system: Rat; assay: concentration in brain after dosing; conditions: 24 h; dosed: Perfluorooctanoic acid; 12 mg/kg; oral; Male; Harlan Sprague Dawley
[21] = system: Rat; assay: concentration in kidney after dosing; conditions: 1200 h; dosed: Perfluorooctanoic acid; 12 mg/kg; oral; Male; Harlan Sprague Dawley
[22] = system: Rat; assay: concentration in kidney after dosing; conditions: 6 h; dosed: Perfluorooctanoic acid; 12 mg/kg; oral; Male; Harlan Sprague Dawley
[23] = system: Rat; assay: concentration in plasma after dosing; conditions: dosed: 678-39-7, 12 mg/kg, iv, Male, F344
[24] = system: Rat; assay: concentration in liver after dosing; conditions: 3 h; dosed: Potassium Perfluorobutane Sulfonate; 20 mg/kg; oral; Male; Harlan Sprague Dawley
[25] = system: Rat; assay: concentration in plasma after dosing; conditions: 0.25 h; dosed: Potassium Perfluorobutane Sulfonate; 4 mg/kg; iv; Male; F344
[26] = system: Rat; assay: concentration in plasma after dosing; conditions: 1.5 h; dosed: Potassium Perfluorobutane Sulfonate; 4 mg/kg; oral; Male; Harlan Sprague Dawley
[27] = system: Rat; assay: concentration in kidney after dosing; conditions: 1 h; dosed: Potassium Perfluorobutane Sulfonate; 20 mg/kg; oral; Female; Harlan Sprague Dawley
[28] = system: Rat; assay: concentration in liver after dosing; conditions: 12 h; dosed: Potassium Perfluorobutane Sulfonate; 20 mg/kg; oral; Male; Harlan Sprague Dawley
[29] = system: Rat; assay: concentration in kidney after dosing; conditions: 1 h; dosed: Potassium Perfluorobutane Sulfonate; 20 mg/kg; oral; Male; Harlan Sprague Dawley
[30] = system: rat; assay: concentration in liver after dosing (ugEq/g tissue); conditions: dosed: benzo[a]pyrene, iv, male, Wistar

COc1ccc(C(=O)c2ccccc2)c(O)c1 [2-Hydroxy-4-methoxybenzophenone]
concentration in plasma [ng/mL]
Conditions | 2 h | 3 h | 10 min
[1] | 78.6 | – | 3030
[7] | – | 91.3 | 357

Conditions | concentration in plasma [ng/mL]
[2] | 81.6
[3] | 37.2
[4] | 289
[5] | 7710
[6] | 4310

O=N[O-] [Nitrite]
Conditions | concentration in plasma [ng/mL]
[8], 1.25 h | 2000
[8], 10 min | 15400
[9], 1.25 h | 1700
[9], 10 min | 4800
[10], 1.5 h | 2000
[10], 20 min | 2600
[11], 0.5 h | 5200
[11], 4 h | 2300

O=C(O)C(F)(F)C(F)(F)C(F)(F)C(F)(F)C(F)(F)C(F)(F)C(F)(F)F [Perfluorooctanoic acid]
Conditions | concentration in brain [ng/g] | concentration in kidney [ng/g] | concentration in liver [ng/g]
[12] | 1000 | – | –
[13] | – | – | 162000
[14] | – | – | 300
[15] | – | – | 676
[16] | – | 711 | –
[17] | – | – | 1430
[19] | – | – | 535
[20] | 1290 | – | –
[21] | – | 695 | –
[22] | – | 37600 | –

concentration in plasma [ng/mL]
Conditions | 0.25 h | 0.75 h | 6 h | 12 h | 24 h
[18] | 671 | – | 1310 | – | 819
[23] | – | 332 | – | 524 | –

O=S(=O)([O-])C(F)(F)C(F)(F)C(F)(F)C(F)(F)F.[K+] [Potassium Perfluorobutane Sulfonate]
Conditions | concentration in kidney [ng/g] | concentration in liver [ng/g] | concentration in plasma [ng/mL]
[24] | – | 64100 | –
[25] | – | – | 16400
[26] | – | – | 13500
[27] | 19300 | – | –
[28] | – | 9420 | –
[29] | 22700 | – | –

c1ccc2c(c1)cc1ccc3cccc4ccc2c1c34 [benzo[a]pyrene]
concentration in liver, [30]
Conditions | 2 mg/kg | 6 mg/kg | 15 mg/kg
0.5 h | 2.43 | 11.4 | 15.2
0.75 h | 1.34 | 11.1 | 13.1
1 h | 0.34 | 5.54 | 4.86
1.5 h | 0.91 | 1.32 | 8.51
2 h | 0.01 | 0.55 | 3.39
3 h | – | 0.15 | 0.72
4 h | – | 0.09 | 0.24
5 h | – | 0.06 | 0.14
5 min | 11.3 | 31.2 | 27.5
6 h | – | 0.06 | 0.16
8 h | – | 0.02 | 0.05
10 min | 6.52 | 24.3 | 29.8
20 min | 4.01 | 16.1 | 21.9
24 h | – | 0.01 | 0.01
32 h | – | 0.02 | –
